Where two headings read alike, the source gives them in different places.
Legend:
[1] = target: KHK-C expressed in NRK-52E cells (Homo sapiens (Human), UniProt P50053); experiment: KHK-C Cell-based Assay (EC50), NRK CTG, fructose-mediated ATP-depletion
human KHK-C = human KHK-C (Homo sapiens (Human), UniProt P50053); experiment: KHK Biochemical Assay (IC50), ADP-Glo, KHK-C; details: average of at least two separate assays
How it was run: (§1)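 ADP-Glo luminescence measured ADP made over a 4 h room-temperature reaction of ATP plus fructose, started after 30 min compound–enzyme pre-incubation. Buffer: 50 mM Hepes pH 7.4, 140 mM KCl, 5 mM MgCl2, 0.01% Triton-X. Enzyme was His-tagged, BL21 (DE3)-expressed, Ni-NTA-purified; compounds in 1:3 DMSO dilution series.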

human KHK-A = human KHK-A (Homo sapiens (Human), UniProt P50053); experiment: KHK Biochemical Assay (IC50), ADP-Glo, KHK-A; details: average of at least two separate assays
How it was run: as §1

Sequence of human KHK-C (P50053 whole entry): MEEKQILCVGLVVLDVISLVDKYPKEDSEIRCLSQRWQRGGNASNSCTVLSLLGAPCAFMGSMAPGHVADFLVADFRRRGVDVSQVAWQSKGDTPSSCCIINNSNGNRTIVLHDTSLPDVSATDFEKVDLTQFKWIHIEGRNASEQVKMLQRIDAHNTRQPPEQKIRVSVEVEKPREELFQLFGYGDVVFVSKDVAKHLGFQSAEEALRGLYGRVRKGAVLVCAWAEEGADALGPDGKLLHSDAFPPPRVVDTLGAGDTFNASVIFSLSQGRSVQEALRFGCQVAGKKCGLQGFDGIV
Sequence of KHK-C expressed in NRK-52E cells (P50053 whole entry): as above
Sequence of human KHK-A (P50053 other isoform, or with tags, fused parts or gaps): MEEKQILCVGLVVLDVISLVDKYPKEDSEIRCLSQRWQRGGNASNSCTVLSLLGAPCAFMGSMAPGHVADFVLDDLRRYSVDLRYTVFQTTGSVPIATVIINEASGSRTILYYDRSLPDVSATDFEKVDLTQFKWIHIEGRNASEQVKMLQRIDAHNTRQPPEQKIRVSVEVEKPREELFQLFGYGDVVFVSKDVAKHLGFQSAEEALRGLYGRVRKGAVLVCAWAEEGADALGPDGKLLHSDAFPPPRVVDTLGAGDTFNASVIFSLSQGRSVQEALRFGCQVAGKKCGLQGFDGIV

For `NC(=O)c1ccc(-c2nc(N3CCC34CCOC4)nc3c2CCC3)cc1` (stereo not shown) [Example 434, 4-[2-(7-oxa-1-azaspiro[3.4]octan-1-yl)-6,7-dihydro-5H-cyclopenta[d]pyrimidin-4-yl]benzamide], the EC50 [1] was 3310 nM, the IC50 (human KHK-C) was 1620 nM and the IC50 (human KHK-A) was 2930 nM.

`C[C@H]1[C@H](O)CN1c1nc(-c2ccc(OC3CC3)c([S@@](C)(=N)=O)c2)c2c(n1)C(F)(F)CC2` (single isomer, unassigned) [Example 542] showed an EC50 [1] of 5.7 nM, an IC50 (human KHK-C) of 0.6 nM and an IC50 (human KHK-A) of 0.5 nM.

With `C[C@H]1CCN1c1nc2c(c(-c3ccc4c(c3)CC(CC(=O)O)C4)n1)CCC2` (stereo partly drawn) [Example 134, 2-(5-(2-((S)-2-methylazetidin-1-yl)-6,7-dihydro-5H-cyclopenta[d]pyrimidin-4-yl)-2,3-dihydro-1H-inden-2-yl)acetic acid] the EC50 [1] was 1030 nM, the IC50 (human KHK-C; ADP-Glo) was 89.9 nM and the IC50 (human KHK-A; ADP-Glo) was 158 nM.

`C[C@H]1CCN1c1nc2c(c(-c3ccc4nc(N)ccc4c3)n1)CCC2` [Example 143, (S)-6-(2-(2-methylazetidin-1-yl)-6,7-dihydro-5H-cyclopenta[d]pyrimidin-4-yl)quinolin-2-amine] was tested, and the EC50 [1] was 43.3 nM, the IC50 (human KHK-C; ADP-Glo) was 30.6 nM and the IC50 (human KHK-A; ADP-Glo) was 21.4 nM.

With `NC(=O)c1ccc(-c2nc(N3CC(O)[C@@H]3Cc3ccccc3)nc3c2CCC3)cc1` (stereo partly drawn) [Example 431, 4-[2-[(2S)-2-benzyl-3-hydroxy-azetidin-1-yl]-6,7-dihydro-5H-cyclopenta[d]pyrimidin-4-yl]benzamide] the EC50 [1] was 711 nM, the IC50 (human KHK-C) was 513 nM and the IC50 (human KHK-A) was 808 nM.

With `COc1ccc(-c2nc(N3C[C@@H](O)[C@@H]3C)nc3c2CCC3(F)F)cc1S(=N)(=O)C(F)F` (stereo partly drawn) [Example 832, (2S,3R)-1-[4-[3-(difluoromethylsulfonimidoyl)-4-methoxy-phenyl]-7,7-difluoro-5,6-dihydrocyclopenta[d]pyrimidin-2-yl]-2-methyl-azetidin-3-ol] the EC50 [1] was 20.5 nM, the IC50 (human KHK-C; ADP-Glo) was 5.7 nM and the IC50 (human KHK-A; ADP-Glo) was 2.5 nM.

`C[C@H]1CCN1c1nc2c(c(-c3cccc(CN(C)C)c3)n1)CCC2` [Example 346, N,N-dimethyl-1-[3-[2-[(2S)-2-methylazetidin-1-yl]-6,7-dihydro-5H-cyclopenta[d]pyrimidin-4-yl]phenyl]methanamine] showed an EC50 [1] of 27.5 nM, an IC50 (human KHK-C; ADP-Glo) of 14.7 nM and an IC50 (human KHK-A; ADP-Glo) of 16.7 nM.

With `C[C@H]1[C@H](O)CN1c1nc2c(c(-c3ccc4c(c3)C(=O)N(C)C4)n1)CCC2` [Example 204] the EC50 [1] was 109 nM, the IC50 (human KHK-C; ADP-Glo) was 37.2 nM and the IC50 (human KHK-A; ADP-Glo) was 118 nM.

In the case of `C[C@H]1CCN1c1nc2c(c(-c3cccc(CNC(=O)CO)c3)n1)CCC2` [Example 231, 2-hydroxy-N-[[3-[2-[(2S)-2-methylazetidin-1-yl]-6,7-dihydro-5H-cyclopenta[d]pyrimidin-4-yl]phenyl]methyl]acetamide], the EC50 [1] is reported as 199 nM, the IC50 (human KHK-C; ADP-Glo) is reported as 50.6 nM and the IC50 (human KHK-A; ADP-Glo) is reported as 56.7 nM.

For `C[C@H]1CCN1c1nc2c(c(-c3cccc(S(=N)(=O)C4CCOCC4)c3)n1)CCC2` (stereo partly drawn) [Example 880, imino(3-(2-((S)-2-methylazetidin-1-yl)-6,7-dihydro-5H-cyclopenta[d]pyrimidin-4-yl)phenyl)(tetrahydro-2H-pyran-4-yl)-λ^6-sulfanone], the EC50 [1] was > 100 nM, the IC50 (human KHK-C; ADP-Glo) was 31.6 nM and the IC50 (human KHK-A; ADP-Glo) was 22.5 nM.

For `C[C@H]1CCN1c1nc2c(c(-c3ccc(C4(NC(=O)OC(C)(C)C)CCC4)cc3)n1)CCC2` [Example 311, (S)-tert-butyl (1-(4-(2-(2-methylazetidin-1-yl)-6,7-dihydro-5H-cyclopenta[d]pyrimidin-4-yl)phenyl)cyclobutyl)carbamate], the EC50 [1] was 915 nM, the IC50 (human KHK-C; ADP-Glo) was > 5000 nM and the IC50 (human KHK-A; ADP-Glo) was > 5000 nM.

`C[C@H]1CCN1c1nc2c(c(-c3ccc4c(c3)S(=O)(=O)NC4)n1)CCC2` [Example 72, (S)-6-(2-(2-methylazetidin-1-yl)-6,7-dihydro-5H-cyclopenta[d]pyrimidin-4-yl)-2,3-dihydrobenzo[d]isothiazole 1,1-dioxide] showed an EC50 [1] of 29.8 nM, an IC50 (human KHK-C; ADP-Glo) of 15 nM and an IC50 (human KHK-A; ADP-Glo) of 18 nM.

`CC(=O)Nc1ccc(-c2nc(N3CC[C@@H]3C)nc3c2CCC3)cc1` [Example 355, N-[4-[2-[(2S)-2-methylazetidin-1-yl]-6,7-dihydro-5H-cyclopenta[d]pyrimidin-4-yl]phenyl]acetamide] was tested, and the EC50 [1] was 92.4 nM, the IC50 (human KHK-C; ADP-Glo) was 72.7 nM and the IC50 (human KHK-A; ADP-Glo) was 33.3 nM.

For `C[C@H]1CCN1c1nc2c(c(-c3cccc(CS(C)(=O)=O)c3)n1)CCC2` [Example 88, (S)-2-(2-methylazetidin-1-yl)-4-(3-((methylsulfonyl)methyl)phenyl)-6,7-dihydro-5H-cyclopenta[d]pyrimidine], the EC50 [1] was 214 nM, the IC50 (human KHK-C; ADP-Glo) was 62.8 nM and the IC50 (human KHK-A; ADP-Glo) was 75.3 nM.

`C[C@H]1CCN1c1nc2c(c(-c3ccc4c(c3)C(=O)NC(=O)C4)n1)CCC2` [Example 424, (S)-7-(2-(2-methylazetidin-1-yl)-6,7-dihydro-5H-cyclopenta[d]pyrimidin-4-yl)isoquinoline-1,3(2H,4H)-dione] was tested, and the EC50 [1] was 3510 nM, the IC50 (human KHK-C) was 136 nM and the IC50 (human KHK-A) was 169 nM.

With `C[C@H]1CCN1c1nc2c(c(-c3cc(C(N)=O)c4ccccc4c3)n1)CCC2` [Example 423, (S)-3-(2-(2-methylazetidin-1-yl)-6,7-dihydro-5H-cyclopenta[d]pyrimidin-4-yl)-1-naphthamide] the EC50 [1] was 239 nM, the IC50 (human KHK-C) was 81.4 nM and the IC50 (human KHK-A) was 66.1 nM.

For `C[C@H]1[C@H](O)CN1c1nc(-c2ccc3c(c2)CCC32CCC(=O)N2)c2c(n1)C(F)(F)CC2` (stereo partly drawn) [Example 636, 5-(7,7-difluoro-2-((2S,3R)-3-hydroxy-2-methylazetidin-1-yl)-6,7-dihydro-5H-cyclopenta[d]pyrimidin-4-yl)-2,3-dihydrospiro[indene-1,2′-pyrrolidin]-5′-one], the EC50 [1] was 13 nM, the IC50 (human KHK-C) was 0.5 nM and the IC50 (human KHK-A) was 11.4 nM.

Work on `C[C@H]1CCN1c1nc2c(c(-c3nc4cc(F)ccc4n3C)n1)CCC2` [Example 390, 5-fluoro-1-methyl-2-[2-[(2S)-2-methylazetidin-1-yl]-6,7-dihydro-5H-cyclopenta[d]pyrimidin-4-yl]benzimidazole] yielded an EC50 [1] of 3330 nM, an IC50 (human KHK-C; ADP-Glo) of 2480 nM and an IC50 (human KHK-A; ADP-Glo) of 4220 nM.

For `C[C@H]1CCN1c1nc2c(c(-c3ccc4c(ccn4C)c3)n1)CCC2` [Example 275, (S)-4-(1-methyl-1H-indol-5-yl)-2-(2-methylazetidin-1-yl)-6,7-dihydro-5H-cyclopenta[d]pyrimidine], the EC50 [1] was 291 nM, the IC50 (human KHK-C; ADP-Glo) was 618 nM and the IC50 (human KHK-A; ADP-Glo) was 1040 nM.

With `CCN1C(=O)N[C@]2(CCc3cc(-c4nc(N5C[C@@H](O)[C@@H]5C)nc5c4CCC5(F)F)ccc32)C1=O` [Example 685, (58)-5′-[7,7-difluoro-2-[(2S,3R)-3-hydroxy-2-methyl-azetidin-1-yl]-5,6-dihydrocyclopenta[d]pyrimidin-4-yl]-3-ethyl-spiro[imidazolidine-5,1′-indane]-2,4-dione] the EC50 [1] was 2.1 nM and the IC50 (human KHK-C) was 0.2 nM.

For `CC1(C#N)CCN1c1nc2c(c(-c3cccc(S(C)(=O)=O)c3)n1)CCC2` (stereo not shown) [Example 714, 2-methyl-1-(4-(3-(methylsulfonyl)phenyl)-6,7-dihydro-5H-cyclopenta[d]pyrimidin-2-yl)azetidine-2-carbonitrile], the EC50 [1] was > 5000 nM and the IC50 (human KHK-C) was > 5000 nM.

With `C[C@@H](NS(C)(=O)=O)c1cccc(-c2nc(N3C[C@@H](O)[C@@H]3C)nc3c2CCC3(F)F)c1` [Example 741, N-[(1R)-1-[3-[7,7-difluoro-2-[(2S,3R)-3-hydroxy-2-methyl-azetidin-1-yl]-5,6-dihydrocyclopenta[d]pyrimidin-4-yl]phenyl]ethyl]methanesulfonamide] the EC50 [1] was 224 nM and the IC50 (human KHK-C) was 24.9 nM.

`C[C@H]1CCN1c1nc2c(c(-c3cccc(C4(O)CS(=O)(=O)C4)c3)n1)CCC2` [Example 397, (S)-3-hydroxy-3-(3-(2-(2-methylazetidin-1-yl)-6,7-dihydro-5H-cyclopenta[d]pyrimidin-4-yl)phenyl)thietane 1,1-dioxide] was tested, and the EC50 [1] was 166 nM and the IC50 (human KHK-C) was 32.8 nM.

`C[C@H](NS(C)(=O)=O)c1cccc(-c2nc(N3CC[C@@H]3C)nc3c2CCC3(F)F)c1` [Example 751, N-[(1S)-1-[3-[7,7-difluoro-2-[(2S)-2-methylazetidin-1-yl]-5,6-dihydrocyclopenta[d]pyrimidin-4-yl]phenyl]ethyl]methanesulfonamide] showed an EC50 [1] of 17.9 nM and an IC50 (human KHK-C) of 10.8 nM.

In the case of `C[C@H]1CCN1c1nc2c(c(-c3ccc(C(N)=O)cn3)n1)CCC2` [Example 752, 6-[2-[(2S)-2-methylazetidin-1-yl]-6,7-dihydro-5H-cyclopenta[d]pyrimidin-4-yl]pyridine-3-carboxamide], the EC50 [1] is reported as 223 nM and the IC50 (human KHK-C) is reported as 79.2 nM.

`C[C@H]1[C@H](O)CN1c1nc(-c2ccc(C(N)=O)cc2)c2c(n1)C1CC2C1` [Example 176] showed an EC50 [1] of 2810 nM and an IC50 (human KHK-C; ADP-Glo) of 899 nM.

With `NC(=O)c1ccc(-c2nc(N3CCn4nccc43)nc3c2CCC3)cc1` [Example 173, 4-(2-(2,3-dihydro-1H-imidazo[1,2-b]pyrazol-1-yl)-6,7-dihydro-5H-cyclopenta[d]pyrimidin-4-yl)benzamide] the EC50 [1] was > 5000 nM and the IC50 (human KHK-C; ADP-Glo) was > 5000 nM.

`C[C@H]1CCN1c1nc2c(c(-c3cccc([S+](C)[O-])c3)n1)CCC2` (stereo in doubt) [Example 400, (S)-2-(2-methylazetidin-1-yl)-4-(3-(methylsulfinyl)phenyl)-6,7-dihydro-5H-cyclopenta[d]pyrimidine] showed an EC50 [1] of 320 nM and an IC50 (human KHK-C) of 156 nM.

`C[C@H]1CCN1c1nc2c(c(-c3cccc([C@H]4C[C@@H](C(=O)O)C4)c3)n1)CCC2` (single isomer, unassigned) [Example 440] gave an EC50 ([1]; read-out: NRK CTG EC50, NRK-52E cells, Cell-Titer Glo, 25 mM fructose) of 81.6 nM and an IC50 (human KHK-C) of 6.2 nM.

Compound `C[C@H]1CCN1c1nc2c(c(-c3cccc(CN4CCCS4(=O)=O)c3)n1)CCC2` [Example 75, (S)-2-(3-(2-(2-methylazetidin-1-yl)-6,7-dihydro-5H-cyclopenta[d]pyrimidin-4-yl)benzyl)isothiazolidine 1,1-dioxide] has an EC50 [1] of 54.7 nM and an IC50 (human KHK-C; ADP-Glo) of 18.9 nM.
